# Laboratory results taken from patent US10448639B2, “Fungicidal pyrazoles” (FMC CORPORATION, priority 2009, dated 2019).
# Tests used:
# Alternaria solani = test: Test C: tomato early blight, preventive spray on tomato seedlings, visual disease rating; settings: for Test C rating (% disease control) / Test C disease control rating: tomato early blight, 100 = 100% disease control; for Test C disease control rating: 0 = no disease control relative to controls
# Botrytis cinerea = test: Test B: tomato Botrytis, preventive spray on tomato seedlings, visual disease rating; settings: for Test B rating (% disease control) / Test B disease control rating: tomato Botrytis, 100 = 100% disease control; for Test B disease control rating: 0 = no disease control relative to controls
# Text: (§1) General protocol for preparing test suspensions for Tests A-J: the test compounds were first dissolved in acetone in an amount equal to 3% of the final volume and then suspended at the desired concentration (in ppm) in acetone and purified water (50/50 mix by volume) containing 250 ppm of the surfactant Trem® 014 (polyhydric alcohol esters). The resulting test suspensions were then used in Tests A-J. Spraying a 200 ppm test suspension to the point of run-off on the test plants was the equivalent of a rate of 500 g/ha. Unless otherwise indicated, the rating values indicate a 200 ppm test suspension was used. (An asterisk “*” next to the rating value indicates a 40 ppm test suspension was used.)
# The test suspension was sprayed to the point of run-off on tomato seedlings. The following day the seedlings were inoculated with a spore suspension of Botrytis cinerea (the causal agent of tomato Botrytis) and incubated in saturated atmosphere at 20° C. for 48 h, and then moved to a growth chamber at 24° C. for 3 additional days, after which time visual disease ratings were made.
# Septoria nodorum = test: Test F: Septoria glume blotch, preventive spray on wheat seedlings, visual disease rating; settings: for Test F rating (% disease control) / Test F disease control rating: 100 = 100% disease control; for Test F disease control rating: 0 = no disease control relative to controls
# [1] = test system: Puccinia recondita f. sp. tritici; test: Test H: wheat leaf rust, curative spray on inoculated wheat seedlings, visual disease rating; settings: for Test H rating (% disease control) / Test H disease control rating: wheat leaf rust, 100 = 100% disease control; for Test H disease control rating: sprayed after inoculation, 0 = no disease control relative to controls
# [2] = test system: Puccinia recondita f. sp. tritici; test: Test I: wheat leaf rust, preventive spray on wheat seedlings, visual disease rating; settings: for Test I rating (% disease control) / Test I disease control rating: wheat leaf rust, 100 = 100% disease control; for Test I disease control rating: sprayed the day before inoculation, 0 = no disease control relative to controls
# Septoria tritici = test: Test G: wheat leaf blotch, preventive spray on wheat seedlings, visual disease rating; settings: for Test G rating (% disease control) / Test G disease control rating: wheat leaf blotch, 100 = 100% disease control; for Test G disease control rating: sprayed the day before inoculation, 0 = no disease control relative to controls
# Text: as §1
# The test suspension was sprayed to the point of run-off on wheat seedlings. The following day the seedlings were inoculated with a spore suspension of Septoria tritici (the causal agent of wheat leaf blotch) and incubated in saturated atmosphere at 24° C. for 48 h. and then the seedlings were moved to a growth chamber at 20° C. for 19 additional days, after which time visual disease ratings were made.
# [3] = test system: Erysiphe graminis f sp. tritici; test: Test J: wheat powdery mildew, preventive spray on wheat seedlings, visual disease rating; settings: for Test J rating (% disease control) / Test J disease control rating: wheat powdery mildew, 100 = 100% disease control; for Test J disease control rating: sprayed the day before inoculation, 0 = no disease control relative to controls
# [4] = preventive spray, 0 = no control
# [5] = Septoria glume blotch on wheat, preventive spray, 0 = no control
# [6] = 0 = no control relative to controls
# [7] = Septoria glume blotch, 0 = no control relative to controls
# [8] = curative, 0 = no control relative to controls
# [9] = preventive, 0 = no control relative to controls
smiles,measurement,setting,value
Cc1nn(C)c(Nc2cccc(Cl)c2Cl)c1-c1c(F)cc(C#N)cc1F [compound 147],Test C rating (% disease control),Alternaria solani; [4],88%
same,Test B rating (% disease control),Botrytis cinerea; [4],99%
same,Test F rating (% disease control),Septoria nodorum; [5],100%
same,Test H rating (% disease control),"[1]; curative spray, 0 = no control",0%
same,Test I rating (% disease control),[2]; [4],98%
same,Test G rating (% disease control),Septoria tritici; [4],100%
same,Test J rating (% disease control),[3]; [4],92%
COc1cc(F)c(-c2c(C)nn(C)c2Nc2ccc(F)c(F)c2)c(F)c1 [compound 48],Test C rating (% disease control),Alternaria solani; [4],78%
same,Test B rating (% disease control),Botrytis cinerea; [4],100%
same,Test F rating (% disease control),Septoria nodorum; [5],0%
same,Test H rating (% disease control),"[1]; curative spray, 0 = no control",0%
same,Test I rating (% disease control),[2]; [4],98%
same,Test G rating (% disease control),Septoria tritici; [4],99%
same,Test J rating (% disease control),[3]; [4],98%
"COc1cc(F)c(-c2c(C)nn(C)c2Nc2c(F)cc(F)cc2F)c(F)c1 [Compound 24, 4-(2,6-difluoro-4-methoxyphenyl)-1,3-dimethyl-N-(2,4,6-trifluorophenyl)-1H-pyrazol-5-amine]",pest or weed control at 200 µg/mL,"Alternaria solani; Alternaria solani, in Solanum lycopersicum, 168 h, read-out: Test C rating (% disease control)",100%
same,pest or weed control at 200 µg/mL,"Botrytis cinerea; Botrytis cinerea, in Solanum lycopersicum, 120 h, read-out: Test B rating (% disease control)",98%
same,pest or weed control at 200 µg/mL,"Septoria nodorum; Parastagonospora nodorum, in Triticum aestivum, 192 h, read-out: Test F rating (% disease control)",0%
same,pest or weed control at 200 µg/mL,"[1]; 144 h, read-out: Test H rating (% disease control)",9%
same,pest or weed control at 200 µg/mL,"[2]; 192 h, read-out: Test I rating (% disease control)",97%
same,pest or weed control at 200 µg/mL,"Septoria tritici; Zymoseptoria tritici, in Triticum aestivum, 504 h, read-out: Test G rating (% disease control)",94%
same,pest or weed control at 200 µg/mL,"[3]; Blumeria graminis, in Triticum aestivum, 192 h, read-out: Test J rating (% disease control)",100%
Cc1nn(C)c(Oc2ccc([N+](=O)[O-])c(C#N)c2)c1-c1c(F)cc(F)cc1F [compound 156],Test C rating (% disease control),Alternaria solani; [6],0%
same,Test B rating (% disease control),Botrytis cinerea; [6],94%
same,Test F rating (% disease control),Septoria nodorum; [7],0%
same,Test H rating (% disease control),[1]; [8],0%
same,Test I rating (% disease control),[2]; [9],41%
same,Test G rating (% disease control),Septoria tritici; [6],73%
same,Test J rating (% disease control),[3]; [6],47%
Cc1nn(C)c(Oc2ncc(Cl)cc2Cl)c1-c1c(F)cc(F)cc1F [compound 64],Test C rating (% disease control),Alternaria solani; [4],80%
same,Test B rating (% disease control),Botrytis cinerea; [4],97%
same,Test F rating (% disease control),Septoria nodorum; [5],0%
same,Test H rating (% disease control),"[1]; curative spray, 0 = no control",0%
same,Test I rating (% disease control),[2]; [4],95%
same,Test G rating (% disease control),Septoria tritici; [4],100%
same,Test J rating (% disease control),[3]; [4],98%
COc1ccc(-c2c(C)nn(C)c2Nc2c(F)cc(F)cc2F)c(Cl)c1 [compound 104],Test C rating (% disease control),Alternaria solani; [4],99%
same,Test B rating (% disease control),Botrytis cinerea; [4],100%
same,Test F rating (% disease control),Septoria nodorum; [5],97%
same,Test H rating (% disease control),"[1]; curative spray, 0 = no control",99%
same,Test I rating (% disease control),[2]; [4],99%
same,Test G rating (% disease control),Septoria tritici; [4],99%
same,Test J rating (% disease control),[3]; [4],100%
COc1ccc(Oc2c(-c3ccc(C)cc3)c(C)nn2C)c(Cl)c1 [compound 55],Test C rating (% disease control),Alternaria solani; [4],0%
same,Test B rating (% disease control),Botrytis cinerea; [4],6%
same,Test F rating (% disease control),Septoria nodorum; [5],0%
same,Test H rating (% disease control),"[1]; curative spray, 0 = no control",0%
same,Test I rating (% disease control),[2]; [4],41%
same,Test G rating (% disease control),Septoria tritici; [4],98%
same,Test J rating (% disease control),[3]; [4],73%
COc1cc(F)c(Nc2c(-c3c(F)cccc3F)c(C)nn2C)c(F)c1 [compound 257],Test C rating (% disease control),Alternaria solani; [6],99%
same,Test B rating (% disease control),Botrytis cinerea; [6],100%
same,Test F rating (% disease control),Septoria nodorum; [7],0%
same,Test H rating (% disease control),[1]; [8],0%
same,Test I rating (% disease control),[2]; [9],97%
same,Test G rating (% disease control),Septoria tritici; [6],100%
same,Test J rating (% disease control),[3]; [6],98%
Cc1nn(C)c(Nc2ccc(F)cc2F)c1-c1ccccc1C(F)(F)F [compound 238],Test C rating (% disease control),Alternaria solani; [6],0%
same,Test B rating (% disease control),Botrytis cinerea; [6],99%
same,Test F rating (% disease control),Septoria nodorum; [7],0%
same,Test H rating (% disease control),[1]; [8],53%
same,Test I rating (% disease control),[2]; [9],9%
same,Test G rating (% disease control),Septoria tritici; [6],0%
same,Test J rating (% disease control),[3]; [6],43%
COc1ccc(Nc2c(-c3ccc(F)cc3Br)c(C)nn2C)c(Cl)c1 [compound 324],Test C disease control rating,Alternaria solani,83%
same,Test B disease control rating,Botrytis cinerea,99%
same,Test F disease control rating,Septoria nodorum; Septoria glume blotch on wheat,0%
same,Test H disease control rating,[1],63%
same,Test I disease control rating,[2],99%
same,Test G disease control rating,Septoria tritici,100%
same,Test J disease control rating,[3],99%
Cc1nn(C)c(Nc2ccc(F)cc2Cl)c1-c1c(Cl)cccc1Cl [compound 334],Test C disease control rating,Alternaria solani,0%
same,Test B disease control rating,Botrytis cinerea,100%
same,Test F disease control rating,Septoria nodorum; Septoria glume blotch on wheat,0%
same,Test H disease control rating,[1],0%
same,Test I disease control rating,[2],97%
same,Test G disease control rating,Septoria tritici,100%
same,Test J disease control rating,[3],100%
Cc1nn(C)c(Oc2c(F)cc(C#N)cc2F)c1-c1cc(C(F)(F)F)ccc1Cl [compound 307],Test C disease control rating,Alternaria solani,0%
same,Test B disease control rating,Botrytis cinerea,0%
same,Test F disease control rating,Septoria nodorum; Septoria glume blotch on wheat,0%
same,Test H disease control rating,[1],0%
same,Test I disease control rating,[2],0%
same,Test G disease control rating,Septoria tritici,0%
same,Test J disease control rating,[3],0%
CCOc1ccc(Nc2c(-c3ccc(F)cc3Cl)c(C)nn2C)c(Cl)c1 [compound 325],Test C disease control rating,Alternaria solani,0%
same,Test B disease control rating,Botrytis cinerea,100%
same,Test F disease control rating,Septoria nodorum; Septoria glume blotch on wheat,0%
same,Test H disease control rating,[1],0%
same,Test I disease control rating,[2],97%
same,Test G disease control rating,Septoria tritici,100%
same,Test J disease control rating,[3],99%
Cc1nn(C)c(Nc2ccc(F)cc2)c1-c1ccc(F)cc1F [compound 194],Test C rating (% disease control),Alternaria solani; [6],86%
same,Test B rating (% disease control),Botrytis cinerea; [6],97%
same,Test F rating (% disease control),Septoria nodorum; [7],0%
same,Test H rating (% disease control),[1]; [8],0%
same,Test I rating (% disease control),[2]; [9],91%
same,Test G rating (% disease control),Septoria tritici; [6],99%
same,Test J rating (% disease control),[3]; [6],99%
Cc1nn(C)c(Nc2ncc(Cl)cc2Cl)c1-c1ccccc1C(F)(F)F [compound 251],Test C rating (% disease control),Alternaria solani; [6],0%
same,Test B rating (% disease control),Botrytis cinerea; [6],99%
same,Test F rating (% disease control),Septoria nodorum; [7],0%
same,Test H rating (% disease control),[1]; [8],0%
same,Test I rating (% disease control),[2]; [9],86%
same,Test G rating (% disease control),Septoria tritici; [6],98%
same,Test J rating (% disease control),[3]; [6],100%
COc1cc(F)c(-c2c(C)nn(C)c2Oc2ccc(Br)c(F)c2)c(F)c1 [compound 153],Test C rating (% disease control),Alternaria solani; [6],0%
same,Test B rating (% disease control),Botrytis cinerea; [6],100%
same,Test F rating (% disease control),Septoria nodorum; [7],73%
same,Test H rating (% disease control),[1]; [8],0%
same,Test I rating (% disease control),[2]; [9],96%
same,Test G rating (% disease control),Septoria tritici; [6],100%
same,Test J rating (% disease control),[3]; [6],98%
COc1cc(F)c(-c2c(C)nn(C)c2Oc2ccc(C)c(C#N)c2)c(F)c1 [compound 259],Test C rating (% disease control),Alternaria solani; [6],9%
same,Test B rating (% disease control),Botrytis cinerea; [6],98%
same,Test F rating (% disease control),Septoria nodorum; [7],0%
same,Test H rating (% disease control),[1]; [8],0%
same,Test I rating (% disease control),[2]; [9],86%
same,Test G rating (% disease control),Septoria tritici; [6],100%
same,Test J rating (% disease control),[3]; [6],97%
